Results taken from ChEMBL document CHEMBL1201862, “PubChem BioAssay data set” (2004).
Activity calls are given as the source filed them. Rule as the data show it: actives have a measured IC50 and inactives only a lower limit.

Tests used:
Type in all cases: functional
[1] = target: T1, Sentrin-specific protease 8 (Homo sapiens, UniProt Q96LD8);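 also: luminescence read-out of SENP8 inhibition, dose-response confirmation following an ultra-high-throughput screen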
T1 sequence (Q96LD8 whole entry): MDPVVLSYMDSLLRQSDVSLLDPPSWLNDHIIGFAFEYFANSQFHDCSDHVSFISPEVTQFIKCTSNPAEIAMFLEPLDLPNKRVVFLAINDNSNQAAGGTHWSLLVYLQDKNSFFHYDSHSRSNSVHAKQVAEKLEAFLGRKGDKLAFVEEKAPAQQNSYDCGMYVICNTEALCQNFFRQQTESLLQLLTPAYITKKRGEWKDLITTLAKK

[2] = target: T2, Sentrin-specific protease 7 (Homo sapiens, UniProt Q9BQF6);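 also: Luminescence-based dose-response confirmation of ultra-high-throughput screening hits, measuring inhibition of SENP7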
T2 sequence (Q9BQF6 whole entry): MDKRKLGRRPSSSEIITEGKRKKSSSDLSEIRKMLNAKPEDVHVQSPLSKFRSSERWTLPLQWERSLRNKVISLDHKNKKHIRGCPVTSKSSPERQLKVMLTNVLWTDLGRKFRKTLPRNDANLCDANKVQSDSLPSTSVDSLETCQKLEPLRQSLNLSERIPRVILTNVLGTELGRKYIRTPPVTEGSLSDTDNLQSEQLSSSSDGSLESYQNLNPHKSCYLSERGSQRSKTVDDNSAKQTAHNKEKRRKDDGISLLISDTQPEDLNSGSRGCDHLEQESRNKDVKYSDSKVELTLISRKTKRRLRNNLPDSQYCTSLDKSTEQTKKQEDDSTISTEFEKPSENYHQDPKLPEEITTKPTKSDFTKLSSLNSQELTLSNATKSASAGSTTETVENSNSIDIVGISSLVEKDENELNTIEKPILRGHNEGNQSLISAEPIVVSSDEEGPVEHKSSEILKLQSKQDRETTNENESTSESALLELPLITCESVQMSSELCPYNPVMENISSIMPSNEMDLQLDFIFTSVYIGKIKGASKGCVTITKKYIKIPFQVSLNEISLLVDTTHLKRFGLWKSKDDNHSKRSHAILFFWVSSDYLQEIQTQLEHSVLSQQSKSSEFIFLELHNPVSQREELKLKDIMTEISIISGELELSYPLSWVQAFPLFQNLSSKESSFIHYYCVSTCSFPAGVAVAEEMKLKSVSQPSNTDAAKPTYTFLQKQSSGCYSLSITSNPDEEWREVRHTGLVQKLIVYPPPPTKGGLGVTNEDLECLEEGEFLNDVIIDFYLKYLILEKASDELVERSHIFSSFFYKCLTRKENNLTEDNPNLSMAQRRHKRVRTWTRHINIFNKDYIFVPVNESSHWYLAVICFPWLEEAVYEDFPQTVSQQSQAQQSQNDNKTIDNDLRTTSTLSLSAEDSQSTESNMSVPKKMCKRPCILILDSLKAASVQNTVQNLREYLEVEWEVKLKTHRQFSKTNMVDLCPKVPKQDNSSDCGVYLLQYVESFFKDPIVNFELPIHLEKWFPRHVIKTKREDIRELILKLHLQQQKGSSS

Caspase-3 = target: T3, Caspase-3 (Homo sapiens, UniProt P42574);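 also: Dose-response selectivity test against caspase-3 for candidate inhibitors of sentrin-specific proteases (SENPs)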
T3 sequence (P42574 whole entry): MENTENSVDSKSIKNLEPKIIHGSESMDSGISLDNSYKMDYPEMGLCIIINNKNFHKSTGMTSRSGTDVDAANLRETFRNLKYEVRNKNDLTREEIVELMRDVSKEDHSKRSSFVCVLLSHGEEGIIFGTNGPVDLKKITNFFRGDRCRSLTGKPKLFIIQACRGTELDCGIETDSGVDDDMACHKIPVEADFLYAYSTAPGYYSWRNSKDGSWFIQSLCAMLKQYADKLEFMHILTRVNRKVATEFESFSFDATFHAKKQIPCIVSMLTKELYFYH

[3] = target: T4, Sentrin-specific protease 6 (Homo sapiens, UniProt Q9GZR1);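 also: Luminescence-based dose-response confirmatory assay of SENP6 inhibition, following up an ultra-high-throughput screen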
T4 sequence (Q9GZR1 whole entry): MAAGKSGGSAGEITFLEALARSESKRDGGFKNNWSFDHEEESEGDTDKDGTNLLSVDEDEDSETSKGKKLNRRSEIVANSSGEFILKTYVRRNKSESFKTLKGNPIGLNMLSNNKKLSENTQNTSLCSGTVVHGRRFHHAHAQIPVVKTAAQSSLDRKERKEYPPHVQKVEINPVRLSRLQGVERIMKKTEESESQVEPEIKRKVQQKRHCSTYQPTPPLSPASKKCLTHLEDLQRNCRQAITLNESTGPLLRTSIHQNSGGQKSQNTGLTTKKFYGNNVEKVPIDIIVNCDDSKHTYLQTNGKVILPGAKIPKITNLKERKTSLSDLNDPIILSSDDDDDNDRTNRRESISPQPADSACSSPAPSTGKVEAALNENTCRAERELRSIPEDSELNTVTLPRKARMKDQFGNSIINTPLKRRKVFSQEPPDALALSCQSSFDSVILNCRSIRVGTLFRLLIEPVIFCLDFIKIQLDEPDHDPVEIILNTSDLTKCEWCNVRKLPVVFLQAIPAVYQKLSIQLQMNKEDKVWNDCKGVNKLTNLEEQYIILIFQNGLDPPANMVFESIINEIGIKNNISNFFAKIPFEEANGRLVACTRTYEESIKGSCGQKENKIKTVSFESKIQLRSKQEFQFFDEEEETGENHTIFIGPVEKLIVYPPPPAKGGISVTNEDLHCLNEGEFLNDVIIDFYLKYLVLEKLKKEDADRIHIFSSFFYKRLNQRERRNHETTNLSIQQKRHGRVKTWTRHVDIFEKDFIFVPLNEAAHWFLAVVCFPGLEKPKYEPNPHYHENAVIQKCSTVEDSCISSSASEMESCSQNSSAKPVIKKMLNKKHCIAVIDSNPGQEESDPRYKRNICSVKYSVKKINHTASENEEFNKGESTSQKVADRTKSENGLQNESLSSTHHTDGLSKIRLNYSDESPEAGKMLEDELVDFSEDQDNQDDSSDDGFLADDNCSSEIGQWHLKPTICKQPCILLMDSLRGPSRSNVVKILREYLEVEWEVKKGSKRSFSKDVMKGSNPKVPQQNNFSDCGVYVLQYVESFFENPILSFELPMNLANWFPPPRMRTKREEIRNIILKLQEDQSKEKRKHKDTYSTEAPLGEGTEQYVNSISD

Measured: IC50

Nc1c(N2CCCC2)cc(Cl)c2nonc12
active: [1] 4.09 µM | [2] 4.09 µM | Caspase-3 9.05 µM | [3] 3.02 µM

O=C(NNc1cc(N2CCOCC2)nc(N2CCOCC2)n1)c1ccc([N+](=O)[O-])cc1
active: [1] 6.99 µM | [2] 6.14 µM | Caspase-3 32.4 µM | [3] 6.72 µM

Oc1ccc(/N=C/c2ccc(OCc3ccccc3)cc2)cc1
active: [1] 24.1 µM | [2] 14.6 µM | Caspase-3 14.3 µM | [3] 16.4 µM
